Calls of active or inactive are those of the source. The rule behind the calls is not given here.
System: CCRIS mutagenicity, Ames/micronucleus/aberration tests
Assay: CCRIS mutagenicity studies
[1] = Test System: AMES SALMONELLA TYPHIMURIUM, Strain/Indicator: TA98, Metabolic Activation: NONE, Method: STANDARD PLATE
[2] = Test System: AMES SALMONELLA TYPHIMURIUM, Strain/Indicator: TA100, Metabolic Activation: NONE, Method: STANDARD PLATE

FC(F)(F)c1ccc(Cl)nc1 was tested, and the mutagenic call (Test System: MOUSE LYMPHOMA, Strain/Indicator: L5178Y (TK+/TK-), Metabolic Activation: NONE) was “active; positive” and the mutagenic call (Test System: MOUSE LYMPHOMA, Strain/Indicator: L5178Y (TK+/TK-), Metabolic Activation: RAT, LIVER, S-9, AROCLOR 1254) was “active; positive”.

In the case of ONc1ccc(Sc2ccccc2)cc1, the mutagenic call (Test System: AMES SALMONELLA TYPHIMURIUM, Strain/Indicator: TA98(1,8-DNP6), Metabolic Activation: NONE, Method: STANDARD PLATE) is reported as “active; positive”, the mutagenic call (Test System: AMES SALMONELLA TYPHIMURIUM, Strain/Indicator: TA98(NR), Metabolic Activation: NONE, Method: STANDARD PLATE) is reported as “active; positive” and the mutagenic call [1] is reported as “active; positive”.

For O=[N+]([O-])c1ccc(Cl)c(F)c1, the mutagenic call (End Point: IN VITRO CHROMOSOMAL ABERRATIONS, Test System: HUMAN PERIPHERAL LYMPHOCYTES, Metabolic Activation: NONE) was “inactive; negative”.

With CCO[Si](C)(OCC)OCC the mutagenic call [1] was “inactive; negative”, the mutagenic call (Test System: AMES SALMONELLA TYPHIMURIUM, Strain/Indicator: TA98, Metabolic Activation: RAT LIVER S-9, AROCLOR 1254, Method: STANDARD PLATE) was “inactive; negative” and the mutagenic call [2] was “inactive; negative”. The mutagenic call (Test System: AMES SALMONELLA TYPHIMURIUM, Strain/Indicator: TA100, Metabolic Activation: RAT LIVER S-9, AROCLOR 1254, Method: STANDARD PLATE) was “inactive; negative”, the mutagenic call (Test System: AMES SALMONELLA TYPHIMURIUM, Strain/Indicator: TA1535, Metabolic Activation: NONE, Method: STANDARD PLATE) was “inactive; negative” and the mutagenic call (Test System: AMES SALMONELLA TYPHIMURIUM, Strain/Indicator: TA1535, Metabolic Activation: RAT LIVER S-9, AROCLOR 1254, Method: STANDARD PLATE) was “inactive; negative”. For the same compound, the mutagenic call (Test System: AMES SALMONELLA TYPHIMURIUM, Strain/Indicator: TA1537, Metabolic Activation: NONE, Method: STANDARD PLATE) was “inactive; negative”, the mutagenic call (Test System: AMES SALMONELLA TYPHIMURIUM, Strain/Indicator: TA1537, Metabolic Activation: RAT LIVER S-9, AROCLOR 1254, Method: STANDARD PLATE) was “inactive; negative” and the mutagenic call (Test System: AMES SALMONELLA TYPHIMURIUM, Strain/Indicator: TA1538, Metabolic Activation: NONE, Method: STANDARD PLATE) was “inactive; negative”. For the same compound, the mutagenic call (Test System: AMES SALMONELLA TYPHIMURIUM, Strain/Indicator: TA1538, Metabolic Activation: RAT LIVER S-9, AROCLOR 1254, Method: STANDARD PLATE) was “inactive; negative”, the mutagenic call (Test System: E. COLI, Strain/Indicator: P3078 POLA, Metabolic Activation: NONE, Method: SPOT TEST) was “inactive; negative” and the mutagenic call (Test System: E. COLI, Strain/Indicator: P3078 POLA, Metabolic Activation: RAT LIVER S-9, AROCLOR 1254, Method: SPOT TEST) was “inactive; negative”. For the same compound, the mutagenic call (Test System: E. COLI, Strain/Indicator: W3110, Metabolic Activation: NONE, Method: SPOT TEST) was “inactive; negative”, the mutagenic call (Test System: E. COLI, Strain/Indicator: W3110, Metabolic Activation: RAT LIVER S-9, AROCLOR 1254, Method: SPOT TEST) was “inactive; negative” and the mutagenic call (Test System: MOUSE LYMPHOMA, Strain/Indicator: L5178Y (TK+/TK-), Metabolic Activation: NONE, Method: SUSPENSION/PLATE) was “inactive; negative”. For the same compound, the mutagenic call (Test System: MOUSE LYMPHOMA, Strain/Indicator: L5178Y (TK+/TK-), Metabolic Activation: RAT, LIVER, S-9, Method: SUSPENSION/PLATE) was “inactive; negative”.

For CCCNCC(=O)NC(=O)C=[N+]=[N-], the mutagenic call (Test System: UDS RODENT CELLS, Strain/Indicator: THY INCORP (NON-S-PHASE), Metabolic Activation: NONE, Method: AUTORADIOGRAPHY) was “active; positive”.

In the case of CC(=O)C[C@@H]1CCC(=O)CCC(=O)O[C@H](CC(C)=O)CCC(=O)CCC(=O)O1, the mutagenic call (Test System: CHINESE HAMSTER V-79, Strain/Indicator: V-79 (HPRT)/6-THIOGUANINE, Metabolic Activation: NONE) is reported as “inactive; negative”.

With ClC1CO1 (stereo unspecified) the mutagenic call (Test System: CHINESE HAMSTER V-79, Strain/Indicator: V-79/8-AZAGUANINE, Metabolic Activation: NONE, Method: STANDARD PLATE) was “active; positive”, the mutagenic call (Test System: CHINESE HAMSTER V-79, Strain/Indicator: V-79/OUABAIN, Metabolic Activation: NONE, Method: STANDARD PLATE) was “active; positive” and the mutagenic call (Test System: HUMAN H2E1 CELLS, Strain/Indicator: HPRT/6-THIOGUANINE, Metabolic Activation: NONE, Method: SUSPENSION/MICROTITER PLATE) was “active; positive”.

For CC(C)CN(N)CC(C)C, the mutagenic call [2] was “active; positive”, the mutagenic call (Test System: AMES SALMONELLA TYPHIMURIUM, Strain/Indicator: TA100, Metabolic Activation: RAT, LIVER, S-9, AROCLOR 1254, Method: STANDARD PLATE) was “active; positive” and the mutagenic call (Test System: AMES SALMONELLA TYPHIMURIUM, Strain/Indicator: TA102, Metabolic Activation: NONE, Method: STANDARD PLATE) was “inactive; negative”. The mutagenic call (Test System: AMES SALMONELLA TYPHIMURIUM, Strain/Indicator: TA102, Metabolic Activation: RAT, LIVER, S-9, AROCLOR 1254, Method: STANDARD PLATE) was “inactive; negative”.
